Here are results for 20 molecules from US20250197389A1, “NITROGEN-CONTAINING HETEROCYCLIC COMPOUND” (SHANGHAI SHIJIANG BIOTECHNOLOGY CO., LTD, priority 2022, published 2025).

Bounds are passed on as bounds.

What all share (assay type): cell-based, human
The test system of one assay is mPTP-inactive Daoy cell. The experiment in a line: Inhibitory effect on mPTP-inactive Daoy cell (PPIF shRNA; Promega CellTiter-Glo, intracellular ATP). Particulars: Daoy cell transfected with virus vector carrying PPIF shRNA. An excerpt:
The activity of mitochondria permeability transition pore (mPTP) was regulated by the PPIF protein. […] PPIF protein activity was restricted by the expression level of PPIF protein in cell.
On the technique in general: ATP-based viability assays read luminescence as a measure of living cells.

Another assay relates to mPTP-active Daoy cell. Nature of the assay: Inhibitory effect on mPTP-active Daoy cell (Promega CellTiter-Glo, intracellular ATP). Particulars: Daoy cell transfected with empty virus vector without PPIF shRNA.
Assay [1] has as its system mitochondria permeability transition pore. The experiment in a line: Mitochondria membrane potential (TMRM) in Daoy cell transfected with virus vector carrying PPIF shRNA. Particulars: H2O2 +, CsA −; untreated = 100. An excerpt: (§1) For cells with active mitochondria permeability transition pore, adding peroxide (such as H2O2) could increase the activity of mitochondria permeability transition pore, resulting in a decrease in mitochondria membrane potential.

Assay [2] has the same test system. The experiment in a line: Mitochondria membrane potential (TMRM) in Daoy cell transfected with empty virus vector. Particulars: H2O2 +, CsA −; untreated = 100.
Source text: as §1

Assay [3] has the same test system. Nature of the assay: Mitochondria membrane potential (TMRM) in Daoy cell, mPTP activity. Particulars: H2O2 +, CsA −; untreated = 100.
Source text: as §1

Usually IC50 stands for the midpoint of a concentration-inhibition curve. Read a high IC50 as lower potency. Take `CC1=C2c3cc4c(cc3CCN2C(C(Cl)(Cl)Cl)c2c1ccc1c2OCO1)OCO4` (centres unmarked) [AB36442]: the concentration for half-maximal inhibition (IC50) with mPTP-inactive Daoy cell (Homo sapiens, Daoy) was 29.2 µM; with mPTP-active Daoy cell (Homo sapiens, Daoy), 29.9 µM.

As for `COc1ccc2c(c1OC)C(C1CCC1)N1CCc3cc4c(cc3C1=C2)OCO4` (centres unmarked) [AB36447], the IC50 was determined as 2.65 µM in the assay with mPTP-inactive Daoy cell (Homo sapiens, Daoy) and 6.73 µM in the assay with mPTP-active Daoy cell (Homo sapiens, Daoy).

Regarding `COc1ccc2c(c1Cl)CN1CCc3cc4c(cc3C1=C2)OCO4` [AB36450], the IC50 is 2.23 µM with mPTP-inactive Daoy cell (Homo sapiens, Daoy) and 5.12 µM in the assay with mPTP-active Daoy cell (Homo sapiens, Daoy).

In the case of `COc1ccc2c(c1Br)CN1CCc3cc4c(cc3C1=C2)OCO4` [AB36460], the IC50 in the assay on mPTP-inactive Daoy cell (Homo sapiens, Daoy) came out at 1.27 µM; in the assay with mPTP-active Daoy cell (Homo sapiens, Daoy) it was 2.71 µM.

`COc1ccc2c(c1OC)CN1CCc3cc4c(cc3C1=C2)OCO4` [AB36463]: the IC50 came to 0.88 µM in the assay on mPTP-inactive Daoy cell (Homo sapiens, Daoy) and 1.95 µM in the assay with mPTP-active Daoy cell (Homo sapiens, Daoy).

As for `COc1ccc2c(c1OC)C(c1ccccc1)N1CCc3cc4c(cc3C1=C2)OCO4` (centres unmarked) [AB36467], the IC50 in the assay with mPTP-inactive Daoy cell (Homo sapiens, Daoy) was determined as 4.63 µM; in the assay on mPTP-active Daoy cell (Homo sapiens, Daoy), 12.1 µM.

For the molecule `COc1ccc2c(c1OC)C(CC(C)=O)N1CCc3cc4c(cc3C1=C2)OCO4` (centres unmarked) [AB36472], the IC50 in the assay on mPTP-inactive Daoy cell (Homo sapiens, Daoy) worked out at 15.9 µM; in the assay with mPTP-active Daoy cell (Homo sapiens, Daoy), 15.8 µM.

On to `COc1c(OCCCCl)ccc2c1C(C1CCCC1)N1CCc3cc4c(cc3C1=C2)OCO4` (centres unmarked) [AB36474], for which the IC50 in the assay with mPTP-inactive Daoy cell (Homo sapiens, Daoy) was 1.39 µM; in the assay on mPTP-active Daoy cell (Homo sapiens, Daoy), 4.26 µM.

As for `[2H]C1([2H])c2c(ccc(OC)c2OC)C=C2c3cc4c(cc3CCN21)OCO4` [AB36476], the IC50 was found to be 1.1 µM in the assay on mPTP-inactive Daoy cell and 2.4 µM in the assay with mPTP-active Daoy cell.

Consider `[2H]C1c2c(ccc(OC)c2OC)C=C2c3cc4c(cc3CC([2H])([2H])N21)OCO4` (centres unmarked) [AB36477], for which the IC50 in the assay on mPTP-inactive Daoy cell (Homo sapiens, Daoy) was determined as 1.32 µM; with mPTP-active Daoy cell (Homo sapiens, Daoy), 2.54 µM.

As for `COc1ccc2c(c1OC)C(c1ccncc1)N1CCc3cc4c(cc3C1=C2)OCO4` (centres unmarked) [AB36488], the IC50 with mPTP-inactive Daoy cell (Homo sapiens, Daoy) amounted to 26.9 µM; with mPTP-active Daoy cell (Homo sapiens, Daoy), 27 µM.

Regarding `COc1ccc2c(c1N1CCCCCC1)CN1CCc3cc4c(cc3C1=C2)OCO4` [AB36493], the IC50 is 0.35 µM with mPTP-inactive Daoy cell (Homo sapiens, Daoy) and 1.34 µM with mPTP-active Daoy cell (Homo sapiens, Daoy).

In the case of `COc1ccc2cc3n(c(=O)c2c1OC)CCc1cc2c(cc1-3)OCO2` [AB36496], the IC50 was over 100 µM in the assay with mPTP-inactive Daoy cell (Homo sapiens, Daoy) and 86.3 µM in the assay on mPTP-active Daoy cell (Homo sapiens, Daoy).

In the case of `COc1ccc2c(c1OC)C(C1CCCC1)N1CCc3cc4c(cc3C1C2)OCO4` (centres unmarked) [AB36497], the IC50 was determined as 69 µM with mPTP-inactive Daoy cell (Homo sapiens, Daoy) and 67.4 µM with mPTP-active Daoy cell (Homo sapiens, Daoy).

In the case of `[2H]C([2H])([2H])Oc1c(OC)ccc2c1C(C1CCCC1)N1CCc3cc4c(cc3C1=C2)OCO4` (centres unmarked) [AB36501], the IC50 amounted to 3.43 µM in the assay on mPTP-inactive Daoy cell (Homo sapiens, Daoy) and 12.9 µM with mPTP-active Daoy cell (Homo sapiens, Daoy).

As for `[2H]C([2H])([2H])Oc1c(OC)ccc2c1C([2H])(C1CCCC1)N1CCc3cc4c(cc3C1=C2)OCO4` (centres unmarked) [AB36509], the half-inhibitory concentration (IC50) with mPTP-inactive Daoy cell (Homo sapiens, Daoy) stood at 0.45 µM; in the assay with mPTP-active Daoy cell (Homo sapiens, Daoy), 2.12 µM.

Take `COc1ccc2c(c1OC)C(=C(Cl)Cl)N1CCc3cc4c(cc3C1=C2)OCO4` [AB36512]: the IC50 in the assay with mPTP-inactive Daoy cell (Homo sapiens, Daoy) is 7.09 µM; in the assay on mPTP-active Daoy cell (Homo sapiens, Daoy), 6.42 µM.

Regarding `COc1ccc2c(c1OC)C(n1cccc1)N1CCc3cc4c(cc3C1=C2)OCO4` (centres unmarked) [AB36520], the IC50 came to 16 µM in the assay on mPTP-inactive Daoy cell (Homo sapiens, Daoy) and 16.1 µM in the assay on mPTP-active Daoy cell (Homo sapiens, Daoy).

On to `COc1ccc2c(c1OC)C(C1CCCCC1=O)N1CCc3cc4c(cc3C1=C2)OCO4` (centres unmarked) [AB36525], for which the IC50 with mPTP-inactive Daoy cell (Homo sapiens, Daoy) is 1.65 µM; with mPTP-active Daoy cell (Homo sapiens, Daoy), 1.5 µM.

For the molecule `OO` [Compound H2O2, H2O2], the “Relative TMRM signal intensity (%) in the Daoy cell transfected with virus vector carrying PPIF shRNA, mean value” in assay [1] was 95%. Moreover, the “Relative TMRM signal intensity (%) in the Daoy cell transfected with empty virus vector, mean value” in assay [2] is recorded as 79%. In addition, the “Relative TMRM signal intensity (%) in Daoy cell, mean value” in assay [3] turned out to be 82%.
